Assay results taken from US20250170224A1, “METHODS AND COMPOSITIONS FOR TREATING MICROGLIAL DYSFUNCTION AND IMPROVING METABOLIC DYSFUNCTION” (Ultimate Medicine AG, priority 2021, published 2025).

Tests used:
[1] = In vivo intestinal permeability to CML (CML translocated into the circulation after oral gavage, LC-MS); design: species or system mouse; conditions: young-adult and aged mice, SPF or GF, 4 hours post gavage
Procedure: Specific pathogen-free (SPF) and germ-free (GF) housed C57BL/6 mice were analyzed at 6-10 weeks of age (young-adult) and 96-104 weeks of age (aged). Mice of the aged group in the nontargeted metabolomics analysis were 17-18 months old. Except for nontargeted metabolomics and microbiota profiling, where only male mice were used, all groups included mice from both sexes. Mice were housed under a 12-hour light/12-hour dark cycle and temperatures of 18-23° C. with 40-60% humidity, with food and water given ad libitum. To avoid cage effects, mice from at least three different cages per experimental group were analyzed. […] Blood was collected retro-orbitally after 4 hours and fluorescence intensity was measured on fluorescence plates using an excitation wavelength of 493 nm and an emission wavelength of 518 nm. […] CML translocated into the circulation was measured by liquid chromatography-mass spectrometry (LC-MS). […]
Samples were extracted with precooled (−80° C.) extraction solution (80:20 methanol LC-MS grade: Milli-Q H2O). Targeted metabolite quantification by LC-MS was carried out using an Agilent 1290 Infinity II UHPLC system in line with an Agilent 6495 QQQ-MS operating in multiple reaction monitoring (MRM) mode. […] Peak areas were identified based on standards for each metabolite and calculated using MassHunter v.B.08.02 (Agilent). […]

[2] = tested on: bone marrow-derived macrophages (BMDMs); test: Bone marrow derived macrophages incubated with increasing concentrations of CML for 48 hours; format: cell-based, murine; conditions: in vitro, increasing concentrations of CML (0.1 pM, 1 pM, 10 pM, 100 pM, 1 mM)
Procedure: Cells were cultured at 37° C. and 5% CO2 in a humidified incubator. Murine BMDMs were differentiated from tibial and femoral bone marrow aspirates. Recombinant murine macrophage colony-stimulating factor (Immunotools) was used at 20 ng ml^−1. After 7 days of differentiation, BMDMs were seeded in 24-well plates with 5×10^5 cells per well in triplicates. The medium was switched to serum-free medium 6 hours before the experiment. Cells were incubated with increasing concentrations of CML (untreated, 0.1 pM, 1 pM, 10 pM, 100 pM, 1 mM) for 48 hours, then collected for measurements.
Cell sorting for RT-qPCR and RNA sequencing (RNA-seq) was performed on a MoFlo Astrios (Beckman Coulter; FIG. 7a). Before surface staining, dead cells were excluded by using the Fixable Viability Dye eFluor 780 (1:1,000 dilution; Thermo Fisher Scientific) followed by incubation with Fc receptor blocking antibody CD16/CD32 (1:200 dilution, clone 2.4G2; BD Bioscience). The following antibodies were used for surface staining: anti-CD45 (1:200 dilution, clone 30-F11; Thermo Fisher Scientific); anti-CD11b (1:200 dilution, clone MI/70; Thermo Fisher Scientific). The following lineage antibodies were used (all at 1:300 dilution): anti-CD3 (clone 17A2; BioLegend); anti-CD19 (clone 6D5; BioLegend); anti-CD45R (clone RA3-6B2; BD Biosciences); Ly6C (clone AL-21; BD Biosciences); Ly6G (clone 1A8; BD Biosciences). […]

N[C@@H](CCCCNCC(=O)O)C(=O)O [CML, N^6-carboxymethyllysine]
translocation of CML into the circulation after oral gavage [1]: highest in aged SPF mice
metabolic activity (mitochondrial activity) in BMDMs [2]: decreased metabolic activity
oxidative stress (cellular ROS) in BMDMs [2]: dose-dependent increase in oxidative stress
